We go through 14 molecules from ChEMBL document CHEMBL1201862, “PubChem BioAssay data set” (2004).

The target in experiment [1] is Luciferin 4-monooxygenase (Photinus pyralis, UniProt P08659). The experiment can be described thus: Counter Screen for Luciferase-based Assay Positives. [Related pubchem assays: 620, 618, 411 ]. For orientation: Counterscreens check selectivity or assay interference.
A further experiment concerns HT-1080. The experiment in a line: cytotoxicity in HT1080 fibrosarcoma cells, cell-based, fluorescence readout (AID 620). Format: functional. The settings on record: Homo sapiens.
Experiment [2] is described as follows: A Cell Based Secondary Assay To Explore Cytotoxicity of Compounds that Sensitize Mycobacterium Tuberculosis to Beta-Lactam Antibiotics. It is filed as functional.
Experiment [3] is described as follows: intracellular Trypanosoma cruzi inhibitors in host cells – cell-based, plate reader, cherry-pick samples, set 3, dose response (AID 651818).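 Also: compounds incubated with infected cells for about four days.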 Format: functional.
For experiment [4], the target named is Dual specificity tyrosine-phosphorylation-regulated kinase 1A (Rattus norvegicus, UniProt Q63470). Format: biochemical, Homo sapiens.
Experiment [5] in a line: THP-1 cell cytotoxicity, dose response, cytotoxicity control for non-replicating M. tuberculosis project (AID 489025). Format: functional.
The nature of experiment [6]: HepG2 cell cytotoxicity, dose response, cytotoxicity control for non-replicating M. tuberculosis project (AID 489018). The settings on record: Mycobacterium tuberculosis. Format: functional.
The nature of experiment [7]: Vero E6 cell cytotoxicity, dose response, cytotoxicity control for non-replicating M. tuberculosis project, secondary assay (AID 492998). It is filed as functional, VeroE6. The settings on record: Vero C1008.
Another experiment can be described thus: cells. Format: functional.
Experiment [8] in a line: inhibitors of intracellular T. cruzi replication, confirmation, NIH3T3 host cells, beta-gal luminescence (AID 2044).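 Also: intracellular parasites grown in NIH/3T3 mouse fibroblasts as host cells; luminescent beta-galactosidase reporter signal from transgenic T. cruzi replicating inside host cells; inhibitors lower the luminescence signal.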 It is filed as functional, cell-based.
Experiment [9] is described as follows: growth suppression of PTEN-null colon cells, dose response, cell-based, HCT116 PTEN knockout (AID 1047).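 Also: HCT116 colon tumor cells with PTEN knocked out; cells exposed to compound for 60 hours before readout; potency for loss of cell viability measured by luminescence.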 Format: functional.
A short description of experiment [10]: cytotoxicity toward NIH3T3 fibroblasts, dose response, counter-screen, cell-based, ATP luminescence, mouse fibroblasts (AID 2010).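 Also: cells exposed to compound for about 90 hours before reading.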 It is filed as functional.
Experiment [11] can be described thus: growth suppression of beta-catenin-knockout colon cells, dose response, cell-based, HCT116, human colon tumor (AID 1045).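 Also: HCT116 colon tumor cells with beta catenin knocked out; cells exposed to compound for 60 hours.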 It is filed as functional.
Experiment [12] is described as follows: P. falciparum 3D7-ScDHODH growth inhibitors, dose response, SYBR Green, dry powder samples (AID 1159570).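 Also: parasite growth measured after 72 hours of compound exposure.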 Format: functional, cell-based.
Experiment [13] is described as follows: HepG2 cell cytotoxicity, dose response, cytotoxicity control, plate reader, dry powder samples (AID 1159569).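 Also: inhibitor potency with signal falling toward the positive control level.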 It is filed as functional, cell-based.
A short description of experiment [14]: P. falciparum Dd2 growth inhibitors, dose response, SYBR Green, cherry-picked samples (AID 1159567). It is filed as functional, cell-based.
The nature of experiment [15]: P. falciparum Dd2 growth inhibitors, dose response, SYBR Green, dry powder samples (AID 1159566).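 Also: potency for growth inhibition with lower SYBR green DNA signal.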 It is filed as functional, cell-based.
A short description of experiment [16]: HepG2 cell cytotoxicity, dose response, cytotoxicity control, cherry-picked samples (AID 1159577). Format: functional, cell-based.
Experiment [17] can be described thus: P. falciparum ATP4 D1247Y mutant growth inhibitors, dose response, NITD609-resistant line, SYBR Green, dry powder (AID 1159571).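 Also: parasites synchronized at ring stage by sorbitol before testing.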 Format: functional, cell-based.

The structures appear in SMILES notation. Calls of active or inactive are those of the source.

Chain of Luciferin 4-monooxygenase (P08659 whole entry): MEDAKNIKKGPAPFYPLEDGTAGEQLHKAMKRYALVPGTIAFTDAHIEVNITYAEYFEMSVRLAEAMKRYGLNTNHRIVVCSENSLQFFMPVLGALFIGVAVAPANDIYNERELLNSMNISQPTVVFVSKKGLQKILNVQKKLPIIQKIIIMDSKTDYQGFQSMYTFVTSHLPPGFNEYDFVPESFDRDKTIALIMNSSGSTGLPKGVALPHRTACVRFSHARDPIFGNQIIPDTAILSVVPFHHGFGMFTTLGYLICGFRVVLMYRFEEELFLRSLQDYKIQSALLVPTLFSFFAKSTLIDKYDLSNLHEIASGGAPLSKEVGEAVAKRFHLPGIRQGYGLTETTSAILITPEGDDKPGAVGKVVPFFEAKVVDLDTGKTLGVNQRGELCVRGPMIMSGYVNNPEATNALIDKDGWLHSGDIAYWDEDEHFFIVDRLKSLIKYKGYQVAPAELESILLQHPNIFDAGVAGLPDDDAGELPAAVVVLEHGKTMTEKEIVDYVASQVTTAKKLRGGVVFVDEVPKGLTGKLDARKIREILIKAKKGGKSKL

`CC(C)C(=O)Nc1ccc(NC(=O)c2ccccn2)cn1`: the concentration for a half-maximal effect (EC50) – broadly, the concentration giving half of the maximal effect – was 0.44 µM (active) in experiment [1] and > 50 µM (not active) with HT-1080.

For the molecule `CCCCc1ccc(-c2nc(-c3ccncc3)no2)cc1`, the EC50 in [1] is 60.6 µM (active); in the experiment with HT-1080 it was > 50 µM (not active).

For the molecule `Cc1ccc(CN2C(=O)N/C(=C\c3ccc(-c4ccc(C(=O)O)cc4C)o3)C2=O)cc1`, in experiment [2], the CC50 (as a rule, the concentration at which the toxic effect on the cells reaches its halfway point) was > 40 µM (active).

On to `Cc1ccc(S(=O)(=O)Nc2ccc3c(c2)C(=O)N([C@@H](C)CO)C[C@H](C)[C@H](CN(C)Cc2ccc(Cl)c(Cl)c2)O3)cc1`, for which, in [3], the AC50 (as a rule, the midpoint of the concentration-response curve, whichever way the signal moves) was 5.67 µM (active).

Consider `C[C@@H]1CN([C@@H](C)CO)C(=O)c2cc(NC(=O)Nc3ccc(C(F)(F)F)cc3)ccc2O[C@@H]1CN(C)Cc1ccc(Cl)c(Cl)c1`, for which the AC50 in experiment [3] was 3.38 µM (active).

On to `C[C@H]1CN([C@@H](C)CO)C(=O)c2cccc(NC(=O)c3nc4ccccc4s3)c2O[C@@H]1CN(C)S(=O)(=O)c1ccc(Cl)cc1`, for which the AC50 in experiment [3] was 1.8 µM (active).

As for `C[C@H]1CN([C@@H](C)CO)C(=O)Cc2cc(NC(=O)Nc3ccccc3)ccc2O[C@H]1CN(C)Cc1ccc(C(F)(F)F)cc1`, in experiment [3], the half-maximal activity concentration (AC50) was 3.26 µM (active).

Consider `O=C(Nc1ccccc1Cl)c1csc(-c2cccnc2)n1`, for which the cytotoxic concentration (CC50) in experiment [2] is > 40 µM (active). Further, in [4], the AC50 was 0.493 µM (active).

With `Cc1[nH]n(-c2ccc(Cl)cc2)c(=O)c1N=Nc1cccnc1`, the CC50 in experiment [5] was 26.7 µM (active); in experiment [6], > 20 µM (active); in experiment [7], 12.2 µM (active). Further, in the experiment “cells”, the half-maximal inhibitory concentration (IC50) (usually the point on the concentration scale where inhibition reaches its midpoint) was 1.78 µM (active).

For `CCOc1ccc(/N=c2\cc(-c3ccc(OC)cc3)oc3ccccc23)cc1`, in experiment [2], the CC50 was > 40 µM (active). Also, the EC50 in [8] is 2.64 µM (active); in experiment [9] it was 47.5 µM (active); in experiment [10] it was > 60 µM (not active); in experiment [11], 60.6 µM (active).

In the case of `COc1ccc2c3c([nH]c2c1)[C@H](CO)N(Cc1ccccn1)CC31CCN(Cc2cccc(F)c2)CC1`, the AC50 was 1.12 µM (active) in experiment [12]; 1.21 µM (active) in [13]; 1.48 µM (active) in experiment [14]; 0.422 µM (active) in [15]; > 39 µM (inactive) in experiment [16]; 0.559 µM (active) in [17].

In the case of `COc1ccc(-c2ccc([C@H]3[C@H](C#N)N(C(=O)c4cccnc4)[C@H]3CO)cc2)cc1`, the AC50 in [12] is 1.15 µM (active); in experiment [13], > 100 µM (inactive); in experiment [14] it was 1.25 µM (active); in experiment [15], 0.764 µM (active); in experiment [16], > 42 µM (inactive); in [17] it was 0.586 µM (active).

Turning to `C/C=C/c1ccccc1[C@H]1[C@@H](C#N)N(c2nc(CC)cs2)[C@@H]1CO`, the results for the AC50 in experiment [14] and in experiment [16] were 3.11 µM (active) and 21.4 µM (active), respectively.

For the molecule `COc1ccc2c3c([nH]c2c1)[C@@H](CO)N(Cc1ccccc1)CC31CCN(Cc2cncnc2)CC1`, the AC50 in experiment [12] is 1.27 µM (active); in experiment [14], 2.12 µM (active); in [15] it was 0.929 µM (active); in experiment [16], > 39 µM (inactive); in experiment [17] it was 0.871 µM (active).
